This assay has as its system reference seasonal A(H3N2) viruses A/Louisiana/50/2017 and A/Louisiana/49/2017. The assay can be described thus: microbe, parasite or virus in culture. In kind it is cell-based, influenza A virus. Particulars: read-out: Mean EC50 + SD.

One may read the EC50 as the midpoint of the concentration-response curve.

For the molecule `O=C1c2c(O)c(=O)ccn2N([C@@H]2c3ccccc3SCc3c2ccc(F)c3F)[C@@H]2COCCN12` [baloxavir, baloxavir acid], the EC50 is 14.1 nM.

These data come from article PMC11521183 (Emerging Infectious Diseases, 2024).
